Assay results: publication PMC9935382, “Sorting nexin-dependent therapeutic targeting of oncogenic epidermal growth factor receptor” (Cancer Gene Therapy, 2022)
“Also recorded” adds a separate entry of the source.

Columns and labels:
MDA-MB-468 cells = format: cell-based; details: 3 days, MTT
Procedure: (§1) 2 × 10^3 cells were plated per well in a 96 well plate and left to adhere overnight. The following day, drug treatments were started and continued for 3 days. To measure the viability of the remaining cell population, 10% 3-(4,5-dimethylthiazol-2-yl)-2,5-diphenyltetrazolium (MTT) in media was added and incubated for 2 hours and conversion of MTT to formazan at 540 nm using a biotech Synergy LX plate reader.
A Peptide sequence alignment of modified and stabilized peptides (−) indicates conserved residues, (/) indicates a deleted residue. Modified residues used for staples are (S)-2-(((9H-flouren-9-yl) methoxy) caronylamino)-2-methyl-hept-6-enoic acid and (R)-2-(((9H-flouren-9-yl) methoxy) caronylamino)-2-methyl-dec-9-enoic acid. PTD4 = Protein Transduction Domain. Ac = acetylation of […] and NH2 = amidation of […]. B MDA-MB-468 cells were treated with 10 μM of the indicated peptide for 3 days. Cell viability was measured using an MTT assay. Vehicle control represents 100%. C. A predicted peptide structure of SNX1.3 was generated using SWISSMODEL with negative (blue) and positive (red) residues highlighted.
A–G Cells were plated in a 96-well plate at 2000 cells per well. […] Cell viability was then measured with an MTT assay, viability of treated cells were compared with the vehicle control. […]

MCF10A cells = test: MTT cell viability, MCF10A; format: cell-based; details: immortalized breast epithelial line, 3 days
Procedure: as §1
(§2) A–G Cells were plated in a 96-well plate at 2000 cells per well. […] Cell viability was then measured with an MTT assay, viability of treated cells were compared with the vehicle control. H MDA-MB-468 cells were plated and incubated+/− IPTG for 2 days prior to drug treatment to induce expression of an EGFR-targeted shRNA.

[1] = tested on: mammary fat pad and tumors of WAP-TGFα mice; test: Histopathology (H+E) of WAP-TGFα mouse tissues; format: in vivo; details: for Tumor pathology: tumor site in value
Description: The transgenic mouse line WAP-TGFα (The Jackson Laboratory; Tg(WapTgfa)215Bri) were back crossed to C57BL/6 J background (N8). WAP-TGFα heterozygous males were bred with C57BL/6 J females to generate study animals and offspring were genotyped using primers against the WAP-TGFα transgene. WAP-TGFα heterozygous females were housed continuously with C57Bl/6 J males to induce pregnancy, resulting in transgene expression. […] To ensure randomized treatment arms we added mice to alternating treatment arms as they developed tumors, starting with the control cPTD4 arm. When a second mouse from the same litter developed a tumor, that animal was added to the opposite arm from its litter mate. The researchers were not blinded to the treatment arms. […] Once entered, mice were weighed, tumors measured, and injections given intravenously at 10 μg/g body weight 3x/week for 4 weeks. […] Upon sacrifice, all tumors were collected and fixed in 10% formalin; a portion of each tumor was homogenized in tissue lysis buffer to form tissue protein lysates. Tissues were paraffin-embedded and sectioned by the Tissue Acquisition and Cell Molecular Analysis Shared Resource at the University of Arizona Cancer Center. The University of Arizona IACUC committee performs oversite of animal experimental protocols with coordination from a veterinarian in compliance with AAALAC.
Mice were bred continuously to induce transgene expression and palpated weekly for tumor formation. […] A Changes in tumor size from entry into study until end of study are shown for each individual tumor, (*) indicate tumors that entered the study at size greater than 500 mm^3, all other tumors entered the study at ~100 mm^3. B a Kaplan-Meier survival curve was generated showing when mice were sacrificed by either reaching tumor burden (2000 mm^3) or the end of the study (p = 0.0002). C Upon sacrifice tumors were harvested and fixed in 10% formalin and embedded in paraffin. FFPE blocks were sectioned at […] and stained with hematoxylin and eosin and imaged at 20x. D Protein lysates were generated from tumors upon the sacrifice and probed for the indicated proteins.
Supplementary Figure 3. Upon sacrifice, tissues were harvested and fixed in 10% formalin. Tissues were embedded, sectioned, and stained with H+E by the Tissue Acquisition and Cell Molecular Analysis Shared Resource (TACMASR) at the University of Arizona Cancer Center. H+E slides were then sent to the UC Davis pathology lab for pathological analysis.

BT20 cells = format: cell-based; details: 3 days, MTT
Procedure: as §1, §2
Supplementary Figure 1. A. BT20 triple negative breast cancer cells were treated with SNX1.1, 1.2, or 1.3 for 3 days and their viability was measured via MTT analysis. B. CHO cells were treated with PTD4 or SNX1.3 for 3 days and their viability was measured via MTT analysis.

PARP = PARP cleavage in tumor lysates (immunoblot); format: in vivo, mouse; details: tumor lysates at sacrifice; 10 μg/g IV 3X/week; vs cPTD4
Procedure: Lysates were prepared as described, protein concentrations determined by BCA assay (Pierce) and resolved via standard SDS-PAGE [18]. Gels were transferred to either PVDF (Immobilon P or Immobilon FL) membrane and probed with the indicated antibodies and analyzed by either HRP-linked secondaries (Pierce) or IRDye secondaries (Li-Cor), followed by development in Dura Signal (Pierce) or IR (Licor).
The transgenic mouse line WAP-TGFα (The Jackson Laboratory; Tg(WapTgfa)215Bri) were back crossed to C57BL/6 J background (N8). WAP-TGFα heterozygous males were bred with C57BL/6 J females to generate study animals and offspring were genotyped using primers against the WAP-TGFα transgene. WAP-TGFα heterozygous females were housed continuously with C57Bl/6 J males to induce pregnancy, resulting in transgene expression. […] To ensure randomized treatment arms we added mice to alternating treatment arms as they developed tumors, starting with the control cPTD4 arm. When a second mouse from the same litter developed a tumor, that animal was added to the opposite arm from its litter mate. The researchers were not blinded to the treatment arms. […] Once entered, mice were weighed, tumors measured, and injections given intravenously at 10 μg/g body weight 3x/week for 4 weeks. […]

[2] = molecular target: T1, EGFR kinase domain (residues 672–998) (Homo sapiens, UniProt P00533); test: Microscale thermophoresis (MST) binding to EGFRkin; details: direct binding, MST / BLI
T1 construct: baculovirus insect cell expression system (residues 672–998 with N-terminal His-tag followed by TEV cleavage site); made in house; host or cells: Sf9 insect cells (Bac-to-Bac baculovirus, pFastBacHT)
Procedure: Briefly pFastBacHT plasmid containing the cDNA of EGFR kinase domain with N-terminal His-tag was transformed into DH10Bac E. coli to generate bacmid DNA. P1 virus was generated by transfecting 2.0 mL of sf9 cells at 1.0 million cells/ml density with the purified bacmid DNA (200–3000 ng/μL). The P1 virus was harvested after 5–7 days following transfection. The P1 virus was diluted 100-fold into an sf9 cell culture at a density of 2.0 million cells/ml and cultured for 3 days. Supernatant containing the P2 virus was collected by centrifugation and diluted 40-fold into 1.0 L of sf9 cells at a density of 2.0 million cells/ml. After 2.5–3 days, cell pellets were harvested by centrifugation at 3500 x g at 4 °C for 20 min, and flash frozen in liquid nitrogen prior to storage at −80 °C.
To purify the EGFR kinase domain, Sf9 cell pellets (~10 g) was thawed on ice and homogenized with 2 passages on an EmulsiFlex-C5 (Avestin) in 50 mL of lysis buffer (50 mM Tris pH 7.5, 600 mM NaCl, 1 mM EDTA, 1 mM TCEP, protease inhibitors, DNAase, and 10% Glycerol). The lysate was centrifugated and supernatant was collected and loaded onto a 1.0 mL HisTrap FF column (GE) at a flow rate of 1.0 ml/min. Following loading, the column was washed with 20 column volumes of wash buffer (50 mM Tris pH 7.5, 600 mM NaCl, 20 mM Imidazole, 1 mM TCEP, and 10% Glycerol) and eluted with a linear gradient of elution buffers containing 20 and 300 mM imidazole. Fractions containing the EGFR kinase domain proteins were combined and concentrated to less than 1.0 mL. The concentrated proteins were loaded onto a Superdex 200 10/300 GL column (GE) equilibrated in buffer (20 mM Tris pH 7.5, 100 mM NaCl) for further purification. The purified proteins were concentrated, flash frozen in liquid nitrogen, and stored at −80 °C.
MST experiments were carried out using a Monolith NT.115 pico instrument (NanoTemper Technologies, Munich Germany). […] Kd values were derived from the concentration-dependent changes in normalized fluorescence (Fnorm). Data were analyzed using NanoTemper MO. […]

T47D cells = test: MTT cell viability, T47D; format: cell-based; details: 3 days, ER+ breast cancer line
Procedure: as §1, §2

[3] = Potential toxicity in C57Bl/6 J female mice; format: in vivo, mouse; details: 5.0 or 10.0 μg/g body weight IV 3X/week, 2 weeks, cSNX1.3 vs cPTD4; data not shown
MDA-MB-231 cells = test: MTT cell viability, MDA-MB-231; format: cell-based; details: 3 days
Procedure: as §1, §2

T1 sequence (P00533 696-1022): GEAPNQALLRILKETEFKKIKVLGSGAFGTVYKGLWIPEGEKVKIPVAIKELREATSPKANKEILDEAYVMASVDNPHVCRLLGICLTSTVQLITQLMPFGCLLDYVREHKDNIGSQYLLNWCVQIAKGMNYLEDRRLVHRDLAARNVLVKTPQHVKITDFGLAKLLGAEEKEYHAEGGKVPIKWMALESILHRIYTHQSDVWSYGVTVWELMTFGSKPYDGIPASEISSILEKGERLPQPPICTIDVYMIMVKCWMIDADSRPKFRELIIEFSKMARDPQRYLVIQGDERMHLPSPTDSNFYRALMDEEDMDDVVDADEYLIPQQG

## CC[C@H](C)[C@H](NC(=O)[C@@H](NC(=O)[C@H](Cc1c[nH]cn1)NC(=O)[C@H](CC(N)=O)NC(=O)[C@H](CCCCN)NC(=O)[C@H](C)NC(=O)[C@H](CCCNC(=N)N)NC(=O)[C@H](C)NC(=O)[C@H](CCC(N)=O)NC(=O)[C@H](CCCNC(=N)N)NC(=O)[C@H](C)NC(=O)[C@H](C)NC(=O)[C@H](C)NC(=O)[C@H](CCCNC(=N)N)NC(=O)[C@H](C)NC(=O)[C@H](Cc1ccc(O)cc1)NC(C)=O)C(C)C)C(=O)N[C@@H](CCCCN)C(=O)N[C@@H](Cc1ccc(O)cc1)C(=O)N[C@@H](CC(C)C)C(=O)N[C@@H](CCC(=O)O)C(=O)N[C@H](C(=O)N[C@@H](CC(C)C)C(=O)N[C@@H](CC(C)C)C(=O)N[C@@H](Cc1ccc(O)cc1)C(=O)N[C@@H](CO)C(=O)N[C@@H](CCC(N)=O)C(=O)N[C@@H](CCC(N)=O)C(=O)N[C@@H](CCC(N)=O)C(=O)N[C@@H](CC(C)C)C(=O)N[C@@H](C)C(=O)N[C@@H](CCCCN)C(=O)N[C@@H](Cc1ccc(O)cc1)C(=O)N[C@@H](Cc1c[nH]c2ccccc12)C(=O)N[C@@H](CCC(=O)O)C(=O)N[C@@H](C)C(=O)N[C@@H](Cc1ccccc1)C(=O)N[C@@H](CC(C)C)C(N)=O)[C@@H](C)O [cSNX1.3]
MDA-MB-468 cells
  inhibition of cell survival compared with Sapitinib: more effective than Sapitinib
MCF10A cells
  impact on cell viability / growth: almost no impact
[1]; mouse 6.13.7 (cSNX1.3)
  Fat Pad pathology: Mammary adenomatous to lobular (atypical) hyperplasia; In situ mammary adenocarcinoma
  Tumor pathology: (R2) Mammary adenocarcinoma (cystic)
[1]; mouse 6.4.L (cSNX1.3)
  Fat Pad pathology: Mammary adenomatous to lobular (atypical) hyperplasia; In situ mammary adenocarcinoma; Focal granulomatous mastitis
  Tumor pathology: (L4) Mammary adenomatous to lobular (atypical) hyperplasia; Adenoma; In situ mammary adenocarcinoma; also recorded: (R4) Mammary adenomatous to lobular (atypical) hyperplasia; Cystic ectasia
[1]; mouse 6.9.LR (cSNX1.3)
  Fat Pad pathology: Mammary adenomatous to lobular (atypical) hyperplasia; In situ mammary adenocarcinoma
  Tumor pathology: (L4) Mixed malignant tumor (fibrous component)
[1]; mouse 7.1.9 (cSNX1.3)
  Fat Pad pathology: Mammary adenomatous to lobular (atypical) hyperplasia; In situ cystic (small) mammary adenocarcinoma
  Tumor pathology: (L4) Mammary adenomatous to lobular (atypical) hyperplasia; also recorded: (R4) Mammary adenocarcinoma
BT20 cells
  inhibition of cell survival compared with Sapitinib: more effective than Sapitinib
PARP
  PARP cleavage in remaining tumors: increased PARP cleavage; also recorded: increase in cleaved PARP
[2]
  binding to the EGFR kinase domain: directly bind the EGFR kinase domain
T47D cells
  sensitivity (cell viability): sensitive
[3]
  weight, behavior, or grooming: No difference in weight, behavior, or grooming was observed
MDA-MB-231 cells
  sensitivity (cell viability): sensitive
